Test system: adult subjects with Major Depressive Disorder
Assay: Phase 3 open-label 1-year study: HAM-D total score, response and remission
Type: in vivo, human
Text: Secondary Objective: To assess the need for re-treatment with Compound (1) following initial treatment in adults with MDD currently experiencing an MDE over a 1-year period, and to assess the response of initial treatment and re-treatment(s) with Compound (1) following an initial 2-week treatment period in adults with MDD currently experiencing an MDE over a 1-year period.
Secondary Endpoints: The need for re-treatment with Compound (1) as assessed by: time to first re-treatment (Kaplan-Meier curves), number of subjects achieving the requirements for re-treatment, number of re-treatment cycles for each subject, the response of initial treatment and/or re-treatment as assessed by: change from baseline in the 17-item Hamilton Rating Scale for Depression (HAM-D) total score at the end of each 14-day treatment (initial and/or re-treatment) period, HAM-D response at the end of each 14-day treatment (initial and/or re-treatment) period, defined as a ≥50% reduction in HAM-D score from baseline, HAM-D remission at the end of each 14-day treatment (initial and/or re-treatment) period, defined as HAM-D total score≤7, Clinical Global Impression-Improvement (CGI-I) response, defined as “much improved” or “very much improved”, at the end of each 14-day treatment (initial and/or re-treatment) period, change from baseline in Clinical Global Impression-Severity (CGI-S) score at the end of each 14-day treatment (initial and/or re-treatment) period.
Study Population: Subjects were 18-75 years old, diagnosed with major depressive disorder (MDD) with a MADRS total score of ≥28 and a HAM-D total score of ≥20 at Screening and Day 1 (prior to dosing).
Treatment Groups: The 30 mg and 50 mg dose groups were separated by time of enrollment. The study is comprised of two cohorts: one with Compound (1) 30 mg as a starting dose (30 mg Cohort: n=725), an initial cohort with Compound (1) 50 mg as a starting dose (50 mg Cohort: n=199). A patient receiving Compound (1) 30 mg could be dose reduced to 20 mg and patients receiving Compound (1) 50 mg could be dose reduced to 40 mg (based on tolerability). In all cohorts, Compound (1) is self-administered by patients as an oral therapy once nightly with food for 14 days.
Eligible subjects were given Compound (1)—to be taken at home in the evening with meal.
The cohorts pertaining to the different doses that the subjects received were defined as following: • 50 mg cohort: This cohort includes subjects who have initiated treatment with 50 mg and received re-treatment with 50 mg only. • 30 mg cohort: This cohort includes subjects who have initiated treatment with 30 mg regardless of the dose they have received in re-treatments. • Low dose cohort: This cohort includes subjects who have initiated treatment with 30 mg and received re-treatment with 30 mg only. • Dose switch cohort: This cohort includes subjects who have received initial treatment with 30 mg and at least one subsequent re-treatment with 50 mg. • Study Period X: starts on the date of the first dose of Compound (1) in cycle X and goes up to one day prior to the first dose of the next cycle. In some embodiments, X is any number from 1 to 5. • Treatment Period X: starts on the date of the first dose of Compound (1) in cycle X and goes up to one day after the last dose in cycle X. In some embodiments, X is any number from 1 to 5. • Treatment Cycle X: starts on the date of the first dose of Compound (1) in cycle X and goes up to 14 days after the last dose in cycle X. The treatment cycles may be denoted as C1-C5. • Observation period X: starts the day after Treatment Cycle X ends and goes up to one day prior to the start of next treatment cycle. In some embodiments, X is any number from 1 to 5.
Analysis Sets: The safety set was defined as all subjects who were administered study drug. The period-specific safety set includes subjects in the safety set who were administered study drug in the corresponding treatment cycle. […]

[1] = Day 15 of first treatment cycle, overall study population
[2] = Dose Switch Cohort (FAS), first dose in cycle 30 mg, Cycle 2, Day 15
[3] = Dose Switch Cohort (FAS), first dose in cycle 30 mg, Cycle 3, Day 15
[4] = Dose Switch Cohort (FAS), first dose in cycle 30 mg, Cycle 4, Day 15
[5] = Low Dose Cohort (FAS), of Non-responders at D15 in C3 (N = 33)
[6] = Low Dose Cohort (FAS), of Non-responders at D15 in C4 (N = 18)
[7] = Low Dose Cohort (FAS), of Non-responders at D15 in C5 (N = 7)
[8] = Low Dose Cohort (FAS), subjects dosed in Cycle 2 (199), Cycle 1, Day 15
[9] = Low Dose Cohort (FAS), subjects dosed in Cycle 2 (199), Cycle 1, Day 28
[10] = Low Dose Cohort (FAS), subjects dosed in Cycle 2 (199), Cycle 2, Day 15
[11] = Low Dose Cohort (FAS), subjects dosed in Cycle 2 (199), Cycle 2, Day 28
[12] = Low Dose Cohort (FAS), subjects dosed in Cycle 3 (83), Cycle 1, Day 15
[13] = Low Dose Cohort (FAS), subjects dosed in Cycle 3 (83), Cycle 2, Day 15
[14] = Low Dose Cohort (FAS), subjects dosed in Cycle 3 (83), Cycle 2, Day 28
[15] = Low Dose Cohort (FAS), subjects dosed in Cycle 3 (83), Cycle 3, Day 15
[16] = Low Dose Cohort (FAS), subjects dosed in Cycle 3 (83), Cycle 3, Day 28

C[C@@]1(O)CC[C@H]2[C@H](CC[C@@H]3[C@@H]2CC[C@]2(C)[C@@H](C(=O)Cn4cc(C#N)cn4)CC[C@@H]32)C1 [Compound (1), 1-(2-((3R,5R,8R,9R,10S,13S,14S,17S)-3-hydroxy-3,13-dimethylhexadecahydro-1H-cyclopenta[a]phenanthren-17-yl)-2-oxoethyl)-1H-pyrazole-4-carbonitrile]
Withdrawn in Treatment Cycle 1: Exit for non-response, n (%) (50 mg Cohort (n = 199)): 31 (15.6%)
Subjects achieving remission (HAM-D less than or equal to 7) (50 mg Cohort, Day 15 Treatment Cycle 1, Example 4, 80 subjects of 199): 40.2%
Subjects achieving response (at least 50% reduction in HAM-D from baseline) (50 mg Cohort, Day 15 Treatment Cycle 1, Example 4, about 149 subjects of 199): 74.9%
HAMD-17 remission rate [1]: 40.8%
HAMD-17 response rate [1]: 75.0%
Mean (SD) CFB in HAMD-17 (Day 15 of first treatment cycle, overall study population (30 mg and 50 mg Cohorts)): −15.4 (6.9)
Responders at D15 in C1 who did not discontinue in C1 (FAS), % of subjects dosed in C1 (Dose Switch Cohort (80 dosed)): 80 (100%)
HAM-D Total Score, Mean Change from Period-Specific Baseline [2]: −15.5
HAM-D Total Score, Mean Percent Change from Period-Specific Baseline [2]: −59.1
HAM-D Total Score, Mean Change from Period-Specific Baseline [3]: −15.8
HAM-D Total Score, Mean Percent Change from Period-Specific Baseline [3]: −60.0
HAM-D Total Score, Mean Change from Period-Specific Baseline [4]: −14.8
HAM-D Total Score, Mean Percent Change from Period-Specific Baseline [4]: −60.0
Responders at D15 in C1 who did not discontinue in C1 (FAS), % of subjects dosed in C1 (Low Dose Cohort (645 dosed)): 409 (63.4%)
HAM-D Non-responder rate at D15 (of subjects dosed in cycle) (Low Dose Cohort (FAS), C2 (N = 70 of 199)): (N = 70, 35.2%)
HAM-D Non-responder rate at D15 (of subjects dosed in cycle) (Low Dose Cohort (FAS), C3 (N = 33 of 83)): (N = 33, 39.8%)
HAM-D Non-responder rate at D15 (of subjects dosed in cycle) (Low Dose Cohort (FAS), C4 (N = 18 of 43)): (N = 18, 41.9%)
HAM-D Non-responder rate at D15 (of subjects dosed in cycle) (Low Dose Cohort (FAS), C5 (N = 7 of 20)): (N = 7, 35%)
Status in C2: Non-responder [5]: (57.6%)
Status in C2: Responder [5]: (42.4%)
Status in C2: Non-responder [6]: (55.6%)
Status in C2: Responder [6]: (44.4%)
Status in C3: Non-responder [6]: 9 (50.0%)
Status in C3: Responder [6]: (50.0%)
Status in C2: Non-responder [7]: (85.7%)
Status in C2: Responder [7]: (14.3%)
Status in C3: Non-responder [7]: 3 (42.9%)
Status in C3: Responder [7]: (57.1%)
Status in C4: Non-responder [7]: 5 (71.4%)
Status in C4: Responder [7]: 1 (14.4%)
HAM-D Total Score, Mean Change from Period-Specific Baseline [8]: −17.4
HAM-D Total Score, Mean Percent Change from Period-Specific Baseline [8]: −70.0
HAM-D Total Score, Mean Change from Period-Specific Baseline [9]: −13.8
HAM-D Total Score, Mean Percent Change from Period-Specific Baseline [9]: −55.2
HAM-D Total Score, Mean Change from Period-Specific Baseline [10]: −12.3
HAM-D Total Score, Mean Percent Change from Period-Specific Baseline [10]: −52.6
HAM-D Total Score, Mean Change from Period-Specific Baseline [11]: −11.5
HAM-D Total Score, Mean Percent Change from Period-Specific Baseline [11]: −49.1
HAM-D Total Score, Mean Change from Period-Specific Baseline [12]: −17.2
HAM-D Total Score, Mean Percent Change from Period-Specific Baseline [12]: −68.8
HAM-D Total Score, Mean Change from Period-Specific Baseline (Low Dose Cohort (FAS), subjects dosed in Cycle 3 (83), Cycle 1, Day 28): 83, −12.7, —
HAM-D Total Score, Mean Change from Period-Specific Baseline [13]: −12.7
HAM-D Total Score, Mean Percent Change from Period-Specific Baseline [13]: −52.9
HAM-D Total Score, Mean Change from Period-Specific Baseline [14]: −11.2
HAM-D Total Score, Mean Percent Change from Period-Specific Baseline [14]: −46.5
HAM-D Total Score, Mean Change from Period-Specific Baseline [15]: −12.5
HAM-D Total Score, Mean Percent Change from Period-Specific Baseline [15]: −52.4
HAM-D Total Score, Mean Change from Period-Specific Baseline [16]: −11.9
HAM-D Total Score, Mean Percent Change from Period-Specific Baseline [16]: −49.8
HAM-D Total Score, Mean Change from Period-Specific Baseline (Low Dose Cohort (FAS), subjects dosed in Cycle 4 (43), Cycle 1, Day 15): −17.0
